{
  "source": "paper PMC5347425",
  "about": "“Small Molecule-Induced Domain Swapping as a Mechanism for Controlling Protein Function and Assembly” (Scientific Reports, 2017)",
  "target": "T1, ribose binding protein (RBP) (Caldanaerobacter subterraneus, UniProt Q8RD41)",
  "T1 construct": "gene RbsB; RF125: RBP with human FKBP12 (V24A and C22A) inserted at position 125, without the NFM and CFM mutations",
  "T1 sequence (Q8RD41 24-313)": "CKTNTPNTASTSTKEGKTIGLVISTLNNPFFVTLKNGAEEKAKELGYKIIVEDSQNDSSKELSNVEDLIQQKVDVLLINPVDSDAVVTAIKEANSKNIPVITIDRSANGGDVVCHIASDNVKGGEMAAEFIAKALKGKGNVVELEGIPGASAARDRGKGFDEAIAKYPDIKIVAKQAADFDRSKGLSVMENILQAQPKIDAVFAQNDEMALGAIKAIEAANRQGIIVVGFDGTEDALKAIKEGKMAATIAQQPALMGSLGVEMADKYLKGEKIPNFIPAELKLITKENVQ",
  "T1 sequence (P62942 with tags, fused parts or gaps C23A/V25A partner)": "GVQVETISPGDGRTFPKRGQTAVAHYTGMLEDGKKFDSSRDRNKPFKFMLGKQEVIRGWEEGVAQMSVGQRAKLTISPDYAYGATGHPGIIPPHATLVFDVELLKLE",
  "assay": "isothermal titration calorimetry",
  "data": [
    {"smiles": "O=C[C@H](O)[C@H](O)[C@H](O)CO", "note": "[ribose]", "values": [
      {"measurement": "Kd", "result": 12.8, "unit": "nM"}
    ]}
  ]
}
